Test results from patent US20040191115A1 (priority 2003, published 2004).
Several values for one entry are separate records, joined by “and”; a condition that tells them apart may be missing. Equal values may be shown once. Read-outs that look alike come from different tables or passages of the source.

System: bacillus atrophaeus spores
Details: 2.59 percent H2O2, slow speed, without cartons; for average count of colony forming units for the time period / log of average count for the time period: mean of samples
Procedure: Studies were conducted to determine the microbial eradication on mandrels 34 that were subjected to vaporized sterilant introduced at the heaters 40. […] The efficacy of the mandrel sterilization was studied for both the mandrel caps 35 and the mandrel side tubes 37 (see FIG. 3).
Each of the studies was further carried out using a testing media of bacillus atrophaeus spores for inoculating the mandrels. The mandrels were inoculated by spraying, using an aerating spray bottle having a solution with a concentration of about 7 log bacillus spores. The mandrels were then allowed to air dry. Controls were swabbed using cotton swabs to assure that the mandrels were properly inoculated. Following the machine operating period of the test, the mandrels were swabbed and the bacillus spores transferred to an agar media for incubation of the spores (at 32° C. for 48 hours) and subsequent recovery.
The data was collected by taking swab samples at the mandrel cap 35 (represented by C in the Table) and on the mandrel side tubes 37 (represented by T in the Table).

[1] = time 0 min, swab site C (mandrel cap)
[2] = time 0 min, swab site T (mandrel side tubes)
[3] = time 15 min, swab site C (mandrel cap)
[4] = time 15 min, swab site T (mandrel side tubes)
[5] = time 30 min, swab site C (mandrel cap)
[6] = time 30 min, swab site T (mandrel side tubes)
[7] = time 45 min, swab site C (mandrel cap)
[8] = time 45 min, swab site T (mandrel side tubes)
[9] = time 60 min, swab site C (mandrel cap)
[10] = time 60 min, swab site T (mandrel side tubes)

With `OO` [hydrogen peroxide] the “Result 1 CFU/mL” value [1] was 1.24E+05 CFU/mL and 1.19E+05 CFU/mL, the “Result #2 CFU/mL” value [1] was 1.13E+05 CFU/mL and 1.26E+05 CFU/mL and the “Log (of Average CFU/mandrel)” value [2] was 5.95 Log and 5.65 Log. For the same compound, the “Result #2 CFU/mL” value [2] was 2.09E+05 CFU/mL and 1.17E+05 CFU/mL, the “average count of colony forming units for the time period” value (shortened to “average count of colony forming units”) (time 15 min, cap) was 3.47E+05 CFU/mandrel and the “log of average count for the time period” value (time 15 min, cap) was 5.54 log. The “average count of colony forming units” value (time 15 min, side tubes) was 4.02E+05 CFU/mandrel, the “log of average count for the time period” value (time 15 min, side tubes) was 5.60 log and the “Average CFU/mandrel” value [3] was 2.62E+05 CFU/mandrel and 4.32E+05 CFU/mandrel. For the same compound, the “Log (of Average CFU/mandrel)” value [3] was 5.42 Log and 5.64 Log, the “Average CFU/mL” value [4] was 1.01E+05 CFU/mL and 1.00E+05 CFU/mL and the “Average CFU/mandrel” value [4] was 4.04E+05 CFU/mandrel and 4.00E+05 CFU/mandrel. The “Log (of Average CFU/mandrel)” value [4] was 5.61 Log and 5.60 Log, the “Result 1 CFU/mL” value [4] was 1.03E+05 CFU/mL and 1.06E+05 CFU/mL and the “Result #2 CFU/mL” value [4] was 9.90E+04 CFU/mL and 9.40E+04 CFU/mL. The “Log Red. (Avg)” value (time 15 min relative to time zero, cap) was 0.14 Log, the “Log Red. (Avg)” value (time 15 min relative to time zero, side tubes) was 0.22 Log and the “average count of colony forming units” value (time 30 min, cap) was 3.82E+05 CFU/mandrel. For the same compound, the “log of average count for the time period” value (time 30 min, cap) was 5.58 log, the “average count of colony forming units” value (time 30 min, side tubes) was 4.34E+05 CFU/mandrel and the “log of average count for the time period” value (time 30 min, side tubes) was 5.64 log. For the same compound, the “Average CFU/mandrel” value [5] was 2.66E+05 CFU/mandrel and 4.98E+05 CFU/mandrel, the “Log (of Average CFU/mandrel)” value [5] was 5.42 Log and 5.70 Log and the “Average CFU/mandrel” value [6] was 4.74E+05 CFU/mandrel and 3.94E+05 CFU/mandrel. For the same compound, the “Log (of Average CFU/mandrel)” value [6] was 5.68 Log and 5.60 Log, the “Result #2 CFU/mL” value [6] was 1.15E+05 CFU/mL and 1.08E+05 CFU/mL and the “Log Red. (Avg)” value (time 30 min relative to time zero, cap) was 0.10 Log. The “Log Red. (Avg)” value (time 30 min relative to time zero, side tubes) was 0.19 Log, the “average count of colony forming units” value (time 45 min, cap) was 6.31E+05 CFU/mandrel and the “log of average count for the time period” value (time 45 min, cap) was 5.80 log. For the same compound, the “average count of colony forming units” value (time 45 min, side tubes) was 8.04E+05 CFU/mandrel, the “log of average count for the time period” value (time 45 min, side tubes) was 5.91 log and the “Average CFU/mL” value [7] was 1.43E+05 CFU/mL and 1.73E+05 CFU/mL. The “Average CFU/mandrel” value [7] was 5.72E+05 CFU/mandrel and 6.90E+05 CFU/mandrel, the “Log (of Average CFU/mandrel)” value [7] was 5.76 Log and 5.84 Log and the “Result 1 CFU/mL” value [7] was 1.51E+05 CFU/mL and 1.64E+05 CFU/mL. For the same compound, the “Result #2 CFU/mL” value [7] was 1.35E+05 CFU/mL and 1.81E+05 CFU/mL, the “Average CFU/mL” value [8] was 1.51E+05 CFU/mL and 2.52E+05 CFU/mL and the “Log (of Average CFU/mandrel)” value [8] was 5.78 Log and 6.00 Log. For the same compound, the “Result 1 CFU/mL” value [8] was 1.67E+05 CFU/mL and 2.49E+05 CFU/mL, the “Result #2 CFU/mL” value [8] was 1.34E+05 CFU/mL and 2.54E+05 CFU/mL and the “Log Red. (Avg)” value (time 45 min relative to time zero, cap) was −0.12 Log. The “Log Red. (Avg)” value (time 45 min relative to time zero, side tubes) was −0.08 Log, the “average count of colony forming units” value (time 60 min, cap) was 3.24E+05 CFU/mandrel and the “log of average count for the time period” value (time 60 min, cap) was 5.51 log. For the same compound, the “average count of colony forming units” value (time 60 min, side tubes) was 6.01E+05 CFU/mandrel, the “log of average count for the time period” value (time 60 min, side tubes) was 5.78 log and the “Average CFU/mL” value [9] was 7.35E+04 CFU/mL and 8.85E+04 CFU/mL. The “Average CFU/mandrel” value [9] was 2.94E+05 CFU/mandrel and 3.54E+05 CFU/mandrel, the “Log (of Average CFU/mandrel)” value [9] was 5.47 Log and 5.55 Log and the “Result 1 CFU/mL” value [9] was 6.30E+04 CFU/mL and 8.50E+04 CFU/mL. For the same compound, the “Result #2 CFU/mL” value [9] was 8.40E+04 CFU/mL and 9.20E+04 CFU/mL, the “Average CFU/mL” value [10] was 1.87E+05 CFU/mL and 1.14E+05 CFU/mL and the “Average CFU/mandrel” value [10] was 7.46E+05 CFU/mandrel and 4.56E+05 CFU/mandrel. For the same compound, the “Log (of Average CFU/mandrel)” value [10] was 5.87 Log and 5.66 Log, the “Result 1 CFU/mL” value [10] was 2.10E+05 CFU/mL and 1.20E+05 CFU/mL and the “Result #2 CFU/mL” value [10] was 1.63E+05 CFU/mL and 1.08E+05 CFU/mL. The “Log Red. (Avg)” value (time 60 min relative to time zero, cap) was 0.17 Log and the “Log Red. (Avg)” value (time 60 min relative to time zero, side tubes) was 0.05 Log.
